From ChEMBL document CHEMBL5620355, “Discovery of intracellular self-assembly protein degraders driven by tumor-specific activatable bioorthogonal reaction” (Eur J Med Chem, 2023)
Activity calls are given as the source filed them. No cut-off for these calls is given here.

How the values were obtained:
HEK293 [1] = assay: Cytotoxicity against HEK293 cells at high concentration incubated for 48 hrs by MTT assay; type: toxicity, cell-based; conditions: human, hek293, 48 h
U-87 MG [2] = assay: Antiproliferative activity against human U87 cells incubated for 48 hrs by MTT assay; type: functional, cell-based, U-87MG ATCC
A549 [3] = assay: Antiproliferative activity against human A549 cells incubated for 48 hrs by MTT assay; type: functional, cell-based; conditions: A549, 48 h
HEK293 [4] = assay: Cytotoxicity against HEK293 cells at low concentration incubated for 48 hrs by MTT assay; type: toxicity, cell-based; conditions: human, hek293, 48 h
[5] = Stability of compound in DMEM medium by HPLC analysis; type: physicochemical
HEK293 [6] = assay: Cytotoxicity against HEK293 cells incubated for 48 hrs by MTT assay; type: toxicity, cell-based; conditions: human, hek293, 48 h
A549 [7] = assay: Antiproliferative activity against human A549 cells incubated for 48 hrs in presence of 4-(4-(3-(4-chloro-3-(trifluoromethyl)phenyl)ureido)phenoxy)-N-(prop-2-yn-1-yl)picolinamide by MTT assay; type: functional, cell-based; conditions: A549, 48 h
[8] = molecular target: T1, Ephrin type-B receptor 4 (Homo sapiens) (UniProt P54760); assay: Induction of EphB4 degradation in human U87 cells at 2 uM incubated for 48 hrs in presence of 4-(4-(3-(4-chloro-3-(trifluoromethyl)phenyl)ureido)phenoxy)-N-(prop-2-yn-1-yl)picolinamide by Western blot analysis; type: cell-based
T1 sequence (whole entry): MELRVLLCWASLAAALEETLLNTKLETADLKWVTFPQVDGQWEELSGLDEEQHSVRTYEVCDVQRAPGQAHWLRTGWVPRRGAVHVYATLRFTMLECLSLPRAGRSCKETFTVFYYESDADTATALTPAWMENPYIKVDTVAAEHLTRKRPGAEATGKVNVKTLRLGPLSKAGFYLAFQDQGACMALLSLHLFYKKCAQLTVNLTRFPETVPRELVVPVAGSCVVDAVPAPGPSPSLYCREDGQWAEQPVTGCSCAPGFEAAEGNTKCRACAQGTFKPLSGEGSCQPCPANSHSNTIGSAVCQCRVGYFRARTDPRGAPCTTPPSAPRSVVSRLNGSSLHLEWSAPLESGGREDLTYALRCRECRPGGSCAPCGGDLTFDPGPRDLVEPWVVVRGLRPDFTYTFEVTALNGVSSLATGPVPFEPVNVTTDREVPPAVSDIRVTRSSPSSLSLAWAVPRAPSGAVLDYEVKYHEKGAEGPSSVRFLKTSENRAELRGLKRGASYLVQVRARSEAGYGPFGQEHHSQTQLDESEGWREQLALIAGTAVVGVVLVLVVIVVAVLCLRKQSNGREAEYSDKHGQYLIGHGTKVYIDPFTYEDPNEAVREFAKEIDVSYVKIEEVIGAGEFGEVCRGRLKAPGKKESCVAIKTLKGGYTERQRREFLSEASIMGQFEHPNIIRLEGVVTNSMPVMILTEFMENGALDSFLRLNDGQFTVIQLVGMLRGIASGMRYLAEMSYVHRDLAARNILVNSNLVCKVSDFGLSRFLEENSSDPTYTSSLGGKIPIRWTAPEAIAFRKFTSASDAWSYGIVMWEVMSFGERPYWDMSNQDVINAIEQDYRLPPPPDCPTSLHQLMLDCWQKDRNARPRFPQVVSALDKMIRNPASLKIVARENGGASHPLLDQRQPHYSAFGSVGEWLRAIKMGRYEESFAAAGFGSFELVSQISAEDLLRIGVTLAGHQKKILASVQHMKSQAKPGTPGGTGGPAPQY

[9] = molecular target: T1, Ephrin type-B receptor 4 (Homo sapiens); assay: Induction of EphB4 degradation in human U87 cells upto 10 uM incubated for 48 hrs by Western blot analysis; type: cell-based
HEK293 [10] = assay: Cytotoxicity against HEK293 cells at low concentration incubated for 48 hrs in presence of 4-(4-(3-(4-chloro-3-(trifluoromethyl)phenyl)ureido)phenoxy)-N-(prop-2-yn-1-yl)picolinamide by MTT assay; type: toxicity, cell-based; conditions: human, hek293, 48 h
HEK293 [11] = assay: Cytotoxicity against HEK293 cells at high concentration incubated for 48 hrs in presence of 4-(4-(3-(4-chloro-3-(trifluoromethyl)phenyl)ureido)phenoxy)-N-(prop-2-yn-1-yl)picolinamide by MTT assay; type: toxicity, cell-based; conditions: human, hek293, 48 h
[12] = molecular target: Vascular endothelial growth factor receptor 2 (Homo sapiens) (UniProt P35968); assay: Induction of VEGFR2 degradation in human U87 cells upto 10 uM incubated for 48 hrs by Western blot analysis; type: cell-based
Chain of Vascular endothelial growth factor receptor 2 (Homo sapiens) (P35968 whole entry): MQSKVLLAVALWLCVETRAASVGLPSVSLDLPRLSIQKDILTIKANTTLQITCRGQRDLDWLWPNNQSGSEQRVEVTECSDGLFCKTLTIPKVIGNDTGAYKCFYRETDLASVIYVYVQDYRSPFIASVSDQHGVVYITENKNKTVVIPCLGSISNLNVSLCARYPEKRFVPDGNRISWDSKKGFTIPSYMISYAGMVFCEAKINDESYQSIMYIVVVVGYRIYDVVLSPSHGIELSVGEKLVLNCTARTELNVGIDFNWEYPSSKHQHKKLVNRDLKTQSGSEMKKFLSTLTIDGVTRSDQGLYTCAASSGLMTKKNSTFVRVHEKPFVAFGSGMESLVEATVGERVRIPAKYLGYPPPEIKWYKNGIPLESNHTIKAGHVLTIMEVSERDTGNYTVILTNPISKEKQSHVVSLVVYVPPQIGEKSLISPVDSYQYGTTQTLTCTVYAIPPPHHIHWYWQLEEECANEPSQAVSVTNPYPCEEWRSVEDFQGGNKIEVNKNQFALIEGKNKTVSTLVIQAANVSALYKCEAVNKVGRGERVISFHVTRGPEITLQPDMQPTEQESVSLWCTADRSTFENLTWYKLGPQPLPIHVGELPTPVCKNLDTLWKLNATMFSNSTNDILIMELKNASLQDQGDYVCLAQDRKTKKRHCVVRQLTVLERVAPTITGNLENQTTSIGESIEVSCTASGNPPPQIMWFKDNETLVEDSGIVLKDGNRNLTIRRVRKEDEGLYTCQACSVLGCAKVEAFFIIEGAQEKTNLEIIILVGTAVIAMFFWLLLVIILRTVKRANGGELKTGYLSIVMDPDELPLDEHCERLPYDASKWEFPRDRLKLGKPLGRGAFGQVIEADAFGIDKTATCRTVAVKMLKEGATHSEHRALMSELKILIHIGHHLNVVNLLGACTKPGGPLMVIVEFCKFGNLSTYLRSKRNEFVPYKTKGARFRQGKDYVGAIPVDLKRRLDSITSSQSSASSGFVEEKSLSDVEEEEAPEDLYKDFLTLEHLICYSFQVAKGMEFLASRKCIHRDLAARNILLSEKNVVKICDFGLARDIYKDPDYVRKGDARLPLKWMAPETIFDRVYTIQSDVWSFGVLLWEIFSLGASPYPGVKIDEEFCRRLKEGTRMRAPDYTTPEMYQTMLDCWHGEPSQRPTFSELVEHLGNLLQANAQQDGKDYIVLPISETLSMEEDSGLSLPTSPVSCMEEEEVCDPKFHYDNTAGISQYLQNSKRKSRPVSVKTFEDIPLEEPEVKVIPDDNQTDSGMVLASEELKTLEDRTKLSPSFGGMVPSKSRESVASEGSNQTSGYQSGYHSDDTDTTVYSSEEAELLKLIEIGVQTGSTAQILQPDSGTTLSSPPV

[13] = molecular target: Platelet-derived growth factor receptor beta (Homo sapiens) (UniProt P09619); assay: Induction of PDGFR-beta degradation in human U87 cells upto 10 uM incubated for 48 hrs by Western blot analysis; type: cell-based
Chain of Platelet-derived growth factor receptor beta (Homo sapiens) (P09619 whole entry): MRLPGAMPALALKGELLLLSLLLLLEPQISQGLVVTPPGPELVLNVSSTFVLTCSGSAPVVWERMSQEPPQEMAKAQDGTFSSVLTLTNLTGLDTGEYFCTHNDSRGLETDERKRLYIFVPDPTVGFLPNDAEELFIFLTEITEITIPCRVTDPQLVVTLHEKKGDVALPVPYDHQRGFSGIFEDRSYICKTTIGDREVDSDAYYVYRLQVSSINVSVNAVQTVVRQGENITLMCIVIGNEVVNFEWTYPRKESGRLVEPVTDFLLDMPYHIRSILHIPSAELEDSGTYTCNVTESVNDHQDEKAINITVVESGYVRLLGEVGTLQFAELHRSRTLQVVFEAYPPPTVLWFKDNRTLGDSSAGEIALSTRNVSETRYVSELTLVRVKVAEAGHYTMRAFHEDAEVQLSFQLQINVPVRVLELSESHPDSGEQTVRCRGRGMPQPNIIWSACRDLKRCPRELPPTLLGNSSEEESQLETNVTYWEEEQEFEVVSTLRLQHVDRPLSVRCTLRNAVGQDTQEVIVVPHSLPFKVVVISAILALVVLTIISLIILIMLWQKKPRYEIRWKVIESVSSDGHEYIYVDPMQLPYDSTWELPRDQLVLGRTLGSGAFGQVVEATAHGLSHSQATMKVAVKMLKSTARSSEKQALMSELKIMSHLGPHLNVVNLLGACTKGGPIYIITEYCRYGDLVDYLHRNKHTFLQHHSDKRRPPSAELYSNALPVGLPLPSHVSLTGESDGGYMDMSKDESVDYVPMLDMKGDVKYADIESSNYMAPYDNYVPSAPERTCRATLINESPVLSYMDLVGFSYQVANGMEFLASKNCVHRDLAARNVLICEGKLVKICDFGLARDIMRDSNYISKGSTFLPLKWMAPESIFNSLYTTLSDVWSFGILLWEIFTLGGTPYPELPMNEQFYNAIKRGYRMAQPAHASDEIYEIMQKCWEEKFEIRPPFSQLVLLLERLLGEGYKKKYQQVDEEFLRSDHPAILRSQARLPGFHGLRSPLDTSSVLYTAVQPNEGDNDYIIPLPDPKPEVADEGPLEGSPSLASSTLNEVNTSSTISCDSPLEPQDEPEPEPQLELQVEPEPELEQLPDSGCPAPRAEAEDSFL

U-87 MG [14] = assay: Antiproliferative activity against human U87 cells incubated for 48 hrs in presence of 4-(4-(3-(4-chloro-3-(trifluoromethyl)phenyl)ureido)phenoxy)-N-(prop-2-yn-1-yl)picolinamide by MTT assay; type: functional, cell-based, U-87MG ATCC
[15] = molecular target: Vascular endothelial growth factor receptor 2 (Homo sapiens) (UniProt P35968); assay: Induction of VEGFR2 degradation in human U87 cells at 2 uM incubated for 48 hrs in presence of 4-(4-(3-(4-chloro-3-(trifluoromethyl)phenyl)ureido)phenoxy)-N-(prop-2-yn-1-yl)picolinamide by Western blot analysis; type: cell-based
[16] = molecular target: Serine/threonine-protein kinase B-raf (Homo sapiens) (UniProt P15056); assay: Induction of BRAF degradation in human U87 cells upto 10 uM incubated for 48 hrs by Western blot analysis; type: cell-based
Chain of Serine/threonine-protein kinase B-raf (Homo sapiens) (P15056 whole entry): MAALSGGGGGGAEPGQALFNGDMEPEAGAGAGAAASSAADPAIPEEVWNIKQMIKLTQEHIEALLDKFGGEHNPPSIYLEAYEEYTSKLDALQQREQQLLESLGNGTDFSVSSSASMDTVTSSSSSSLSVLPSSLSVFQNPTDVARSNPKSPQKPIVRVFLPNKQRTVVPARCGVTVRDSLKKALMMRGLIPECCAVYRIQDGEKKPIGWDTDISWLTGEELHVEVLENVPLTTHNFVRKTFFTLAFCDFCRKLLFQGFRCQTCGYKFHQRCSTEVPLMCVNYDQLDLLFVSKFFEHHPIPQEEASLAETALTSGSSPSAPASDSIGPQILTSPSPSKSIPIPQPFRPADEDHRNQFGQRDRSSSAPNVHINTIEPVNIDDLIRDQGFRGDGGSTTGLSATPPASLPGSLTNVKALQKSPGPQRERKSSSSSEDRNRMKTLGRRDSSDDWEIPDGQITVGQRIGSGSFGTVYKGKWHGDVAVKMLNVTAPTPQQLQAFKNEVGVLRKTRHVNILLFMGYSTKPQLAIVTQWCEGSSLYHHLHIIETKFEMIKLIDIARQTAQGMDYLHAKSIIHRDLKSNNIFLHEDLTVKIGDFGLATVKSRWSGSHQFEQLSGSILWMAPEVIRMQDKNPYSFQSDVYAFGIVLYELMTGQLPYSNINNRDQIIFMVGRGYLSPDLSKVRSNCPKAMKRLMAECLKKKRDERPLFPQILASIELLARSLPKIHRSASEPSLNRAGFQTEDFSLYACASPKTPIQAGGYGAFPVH

U-87 MG [17] = assay: Induction of cell cycle arrest at S phase in human U87 cells incubated for 48 hrs in presence of 4-(4-(3-(4-chloro-3-(trifluoromethyl)phenyl)ureido)phenoxy)-N-(prop-2-yn-1-yl)picolinamide by PI staining based flow cytometry; type: functional; conditions: U-87MG ATCC, dose 0.1-1 µM

Row | Compound | Activity (HEK293 [1]) | IC50 (U-87 MG [2]) | IC50 (A549 [3]) | Activity (HEK293 [4]) | Stability [5] | Activity (HEK293 [6]) | IC50 (A549 [7]) | Activity [8] | Activity [9] | Activity (HEK293 [10]) | Activity (HEK293 [11]) | Activity [12] | Activity [13] | IC50 (U-87 MG [14]) | Activity [15] | Activity [16] | Activity (U-87 MG [17])
1 | CNC(=O)c1cc(Oc2ccc(NC(=O)Nc3ccc(Cl)c(C(F)(F)F)c3)cc2)ccn1 [SORAFENIB] | Toxic | 1.28 µM | 8.26 µM | Non-Toxic | – | – | – | – | – | – | – | – | – | – | – | – | –
2 | Nc1cccc2c1C(=O)N(C1CCC(=O)NC1=O)C2=O (stereo not given) [POMALIDOMIDE] | – | – | – | – | Unstable | – | – | – | – | – | – | – | – | – | – | – | –
3 | Cc1ncsc1-c1ccc(CNC(=O)[C@@H]2C[C@@H](O)CN2C(=O)[C@@H](NC(=O)CCCCN=[N+]=[N-])C(C)(C)C)cc1 | – | > 50 µM | > 50 µM | – | Stable | Non-Toxic | 1.06 µM | Active | inactive | Non-Toxic | Toxic | inactive | inactive | 16 µM | Active | inactive | Dose-Dependent Effect
